Results reported in PubChem BioAssay (NCI).
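Compound exposure: 48 hours, 5 concentrations, 96-well plates. GI50: concentration for 50% inhibition of growth. TGI denotes the concentration required for complete inhibition of growth.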

Tests used:
Assay in all cases: NCI anticancer screen, dose series, 48 h
[1] = tested on: COLO 205 colon
[2] = tested on: EKVX NSCLC
[3] = tested on: IGROV1 ovarian
[4] = tested on: MCF7 breast
[5] = tested on: NCI-H226 lung
[6] = tested on: OVCAR-8 ovarian
[7] = tested on: SK-MEL-2 melanoma
[8] = tested on: SNB-19 CNS
[9] = tested on: SNB-75 CNS
[10] = tested on: UACC-62 melanoma

SMILES | GI50 [1] [nM] | TGI [1] [µM] | GI50 [2] [nM] | TGI [2] [µM] | GI50 [3] [nM] | TGI [3] [µM] | GI50 [4] [nM] | TGI [4] [µM] | TGI [5] [µM] | GI50 [6] [nM] | TGI [6] [µM] | GI50 [7] [nM] | TGI [7] [µM] | GI50 [8] [µM] | TGI [8] [µM] | GI50 [9] [nM] | TGI [9] [µM] | GI50 [10] [nM] | TGI [10] [µM] | GI50 [5] [µM]
CC(=O)N=c1ccc2nc3c(cc(N)c4ccccc43)oc-2c1 | 1110 | 2.44 | 1520 | 4.54 | 360 | 1.89 | 753 | 2.4 | > 39.1 | 1310 | 3.6 | 1570 | 3.34 | 1.71 | 3.46 | 1830 | 3.34 | 1410 | 2.72 | –
CCCN(CCC)c1ccc(/C=N/NC(=O)c2cccnc2)c(Cl)c1 | 6290 | 22.3 | 17000 | 71.4 | 1210 | 15.6 | 2590 | 21.1 | 0.707 | 18100 | 53.7 | 14200 | 30.4 | 16.6 | > 100 | 11400 | 39.9 | 875 | 4.6 | 0.241
Cc1ccc(S(=O)(=O)N2CCc3ccc(O)c4c3C2Cc2cc(Cl)ccc2-4)cc1 (stereo not given) | 8120 | 26.2 | 2520 | 28.8 | 1350 | 5.86 | 1080 | 6.28 | 8.4 | 1210 | 5.83 | 1100 | 3.41 | 1.48 | 14.8 | 639 | 2.42 | 962 | 3.77 | 2.63
COC(=O)C1=C(C(=O)OC)C23C=C(C)C1C2=C(C)C1(CC1)[C@@](C)(O)C3=O (stereo not given in full) | 350 | 1.62 | 615 | 5.42 | 275 | – | 346 | > 100 | 3.07 | 359 | > 24.6 | 250 | 0.63 | 0.359 | 13.5 | 198 | 0.547 | 259 | 0.792 | 0.438
CCOC(=O)c1sc(Nc2ccc(Cl)cc2)nc1C | 1830 | 3.59 | 969 | 5.52 | 1520 | 4.26 | 1640 | 6.14 | 4.46 | 2890 | 7.73 | 2100 | 4.2 | 2.08 | 6.25 | 1430 | 4.24 | 1170 | 2.71 | 1.76
CCCc1nc2c(C)cc(-c3nc4ccccc4n3C)cc2n1Cc1ccc(-c2ccccc2C(=O)O)cc1 | 42400 | > 100 | – | – | 43500 | > 100 | 31900 | > 100 | > 100 | 35400 | > 100 | 36600 | 97.3 | 39.4 | > 100 | 56000 | > 100 | 22400 | > 100 | 32.4
CC1=C(C(=O)Nc2ccc(Cl)c(Cl)c2)C(c2ccco2)C(C(=O)Nc2ccc(Cl)c(Cl)c2)=C(C)N1 | – | 25.7 | – | 29.5 | – | 32.6 | – | – | 25.6 | – | 24.3 | – | 26.3 | – | 25.8 | – | 31.5 | – | 26 | –
CCOC(=O)c1cn(Cc2ccccc2)c(=O)n1Cc1ccccc1 | – | > 100 | – | > 100 | – | > 100 | – | – | > 100 | – | > 100 | – | > 100 | – | > 100 | – | > 100 | – | > 100 | –
O=[N+]([O-])c1nccn1COCCF | – | > 100 | – | > 100 | – | > 100 | – | – | > 100 | – | > 100 | – | > 100 | – | > 100 | – | > 100 | – | > 100 | –
COc1ccc(/C=C2\CCC(C)(CN(C)C)C2=O)cc1 (stereo not given) | – | > 100 | – | > 100 | – | > 100 | – | – | > 100 | – | > 100 | – | > 100 | – | > 100 | – | > 100 | – | > 100 | –
COc1ccc(-c2nc(-c3nc4ccc(OC)cc4[nH]3)cc3c2[nH]c2ccccc23)cc1 | 6760 | > 100 | – | – | 2830 | > 100 | 2550 | > 100 | > 100 | 1040 | > 100 | 3310 | 49.2 | 3.37 | > 100 | – | – | 2750 | > 100 | 4.37
CC(C)(C)C(=O)C1CC(=O)c2ccccc2C1=O (stereo not given) | – | > 100 | – | > 100 | – | > 100 | – | – | > 100 | – | > 100 | – | 33.1 | – | > 100 | – | 31.3 | – | > 100 | –
Cc1[nH]c(=O)[nH]c(=O)c1CO | > 100000 | > 100 | – | – | > 100000 | > 100 | > 100000 | > 100 | – | > 100000 | > 100 | > 100000 | > 100 | > 100 | > 100 | > 100000 | > 100 | > 100000 | > 100 | –
NC(=S)N/N=C1/C(=O)N(c2ccc(Cl)cc2Cl)C(=O)C(=O)C1c1nc2ccccc2s1 (stereo not given) | – | > 100 | – | > 100 | – | > 100 | – | – | > 100 | – | > 100 | – | > 100 | – | > 100 | – | > 100 | – | > 100 | –
O=C1CCC2(CC1)SCCCS2 | – | > 100 | – | > 100 | – | > 100 | – | – | > 100 | – | > 100 | – | > 100 | – | > 100 | – | > 100 | – | > 100 | –
COc1cc(-c2cc(-c3nc4ccc(Cl)cc4[nH]3)[nH]n2)cc(OC)c1OC | 3180 | 10 | – | – | 3420 | 16.3 | 2170 | 7.75 | 7.23 | 2260 | 5.59 | – | – | 7.25 | 20.4 | 2710 | 10.4 | 1970 | 4.95 | 1.88
Cc1cc(Cl)cc2c1NC(=O)C2(O)C(C)C(=O)c1ccc(Cl)cc1 (stereo not given) | – | > 100 | – | > 100 | – | > 100 | – | – | > 100 | – | > 100 | – | > 100 | – | > 100 | – | > 100 | – | 44 | –

SMILES | GI50 [1] [nM] | TGI [1] [µM] | GI50 [2] [nM] | TGI [2] [µM] | GI50 [3] [nM] | TGI [3] [µM] | GI50 [4] [nM] | TGI [4] [µM] | TGI [5] [µM] | GI50 [6] [nM] | TGI [6] [µM] | GI50 [7] [nM] | TGI [7] [µM] | GI50 [8] [µM] | TGI [8] [µM] | GI50 [9] [nM] | TGI [9] [µM] | GI50 [10] [nM] | TGI [10] [µM] | GI50 [5] [µM]
O=c1c2ccccc2c2nc3ccccc3nc2n1C1CCCCC1 | – | > 100 | – | > 100 | – | > 100 | – | – | > 100 | – | > 100 | – | > 100 | – | > 100 | – | > 100 | – | > 100 | –
COc1ccc(C(c2c(O)c3ccccc3n(C)c2=O)c2c(O)c3ccccc3n(C)c2=O)cc1 | – | > 100 | – | > 100 | – | > 100 | – | – | 69.5 | – | > 100 | – | > 100 | – | > 100 | – | > 100 | – | 98 | –
Nc1c(C(=O)Nc2ccccc2Cl)sc2nc3c(cc12)CCCCCC3 | 8520 | > 100 | – | – | – | – | 896 | 16.7 | 24.5 | 4110 | 30.5 | 2770 | 23.1 | 2.93 | 20.5 | 1570 | 3.35 | 3320 | > 100 | 3.76
Nc1ccc(/C=N/Nc2ccnc3c(N)cccc23)c2cccnc12 | 1780 | 3.46 | 1630 | 3.34 | – | – | 1480 | 3.12 | 20.8 | – | – | 1700 | 3.25 | – | – | 1740 | 3.35 | 1730 | 3.37 | 4.12
N#CCCN(c1ccc(-c2nnc(NC(=O)CNNC(=O)CC(=O)Nc3ccccc3)s2)cc1)S(=O)(=O)c1ccccc1 | – | > 100 | – | > 100 | – | > 100 | – | – | > 100 | – | > 100 | – | > 100 | – | > 100 | – | > 100 | – | > 100 | –
COc1cc2nc(Nc3cccc(F)c3)nc(Nc3cc(C)[nH]n3)c2cc1OC | 2250 | 4.99 | 1750 | 3.41 | – | – | 1730 | 3.83 | – | 1760 | 5.61 | 2100 | 4.08 | 1.95 | 4.05 | 1520 | 2.95 | 1850 | 3.66 | –
Cn1cc(C2=C(c3cn(CCN)c4ccccc34)C(=O)NC2=O)c2ccccc21 | 2700 | 7.15 | – | – | 9300 | > 21 | 3720 | > 23.4 | 18.1 | 6300 | > 22.3 | 5120 | 12.1 | 8.13 | > 25 | 587 | 6.72 | 5900 | 17.2 | 4.44
C=C(C)[C@@H]1CC[C@]2(C)[C@H](CC[C@@H]3[C@H]4[C@H]5OC[C@@]4(CCC5(C)C)CC[C@]32C)[C@@]1(C)CCCN | 2150 | 4.65 | 1810 | 3.31 | 1800 | 3.36 | 1570 | 3.04 | – | – | – | – | – | 1.78 | 3.24 | 1530 | 3.11 | 1710 | 3.12 | –
Cc1ccccc1CN1CC=c2ccccc2=N1 | – | > 100 | – | > 100 | – | > 100 | – | – | > 100 | – | > 100 | – | > 100 | – | > 100 | – | > 100 | – | > 100 | –
Cc1nc(NC(=O)CCCN2C(=O)c3cccc4cccc(c34)C2=O)sc1C(=O)Nc1cc(C(=O)NCCCN(C)C)n(C)c1 | > 100000 | > 100 | > 100000 | > 100 | > 100000 | > 100 | > 100000 | > 100 | > 100 | – | – | > 100000 | > 100 | > 100 | > 100 | > 100000 | > 100 | > 100000 | > 100 | > 100
C=C1C(=O)O[C@H]2[C@H]1CC/C(COC(=O)NCc1c[nH]c3ccc(Cl)cc13)=C\CC[C@@]1(C)O[C@@H]21 | 1190 | 2.69 | 1580 | 3 | 1410 | 2.94 | – | – | 3.09 | 1380 | 3.36 | 1420 | 2.87 | 3.72 | 14.7 | 1290 | 2.57 | 1340 | 2.76 | 1.61
COc1ccc(C2=NN(C(C)=O)C(c3cn(-c4ccccc4)nc3-c3ccc(Cl)cc3)C2)cc1 (stereo not given) | > 100000 | > 100 | > 100000 | > 100 | > 100000 | > 100 | > 100000 | > 100 | > 100 | – | – | > 100000 | > 100 | – | – | 9080 | > 100 | > 100000 | > 100 | > 100
COc1ccc([N+](=O)[O-])c(S(=O)(=O)c2ccc(Cl)cc2)n1 | 1960 | 3.88 | – | – | 12200 | 31.3 | 2240 | 7.29 | 36 | 3670 | 15.9 | 11400 | 24.3 | 13 | 29.2 | 11000 | 23.6 | 3560 | 13.3 | 10.2
COC(=O)C1=C(CO)C2C=CC1C2 (stereo not given) | – | > 100 | – | > 100 | – | > 100 | – | – | > 100 | – | > 100 | – | > 100 | – | > 100 | – | > 100 | – | > 100 | –
COc1cc(C(=O)c2cc3c(cc2C)OCO3)cc(OC)c1OC | 58.4 | 0.413 | – | – | 371 | > 100 | 36.6 | > 100 | > 100 | 317 | > 100 | 734 | > 100 | – | > 100 | 42.9 | > 100 | 247 | > 100 | 0.554
O=C(/C=C\c1ccc(Cl)cc1Cl)c1cccs1 | – | 30.7 | – | 34.3 | – | – | – | 41.1 | 51.3 | – | 24.8 | – | 35.5 | – | 33.7 | – | 42.2 | – | 28.3 | –
